Laboratory results published in ChEMBL document CHEMBL3044932, “In vitro cytotoxicity evaluation of diversely substituted N-aryl-2-oxindoles” (2013).
≈ marks a conversion by molar mass, not a printed value.

Assays:
Format in all cases: functional
MOLT-4 = test: Cytotoxicity against Homo sapiens (human) MOLT4 cells after 72 hr by MTT assay; settings: MOLT-4, 72 h, read-out: ED50 (the source's name)
B16-F10 = test: Cytotoxicity against Homo sapiens (human) B16F10 cells after 72 hr by MTT assay; settings: Mus musculus, B16-F10, 72 h; read-out: ED50 (the source's name)
L132 = test: Cytotoxicity against Homo sapiens (human) L-132 cells after 72 hr by MTT assay; settings: L132, 72 h, read-out: ED50 (the source's name)
HuTu80 = test: Cytotoxicity against Homo sapiens (human) HuTu 80 cells after 72 hr by MTT assay; settings: HuTu80, 72 h, read-out: ED50 (the source's name)
KB = test: Cytotoxicity against Homo sapiens (human) KB cells after 72 hr by MTT assay; settings: read-out: ED50 (the source's name)
MIA PaCa-2 = test: Cytotoxicity against Homo sapiens (human) MIAPaCa2 cells after 72 hr by MTT assay; settings: MIA PaCa-2, 72 h, read-out: ED50 (the source's name)
MCF7 = test: Cytotoxicity against Homo sapiens (human) MCF7 cells after 72 hr by MTT assay; settings: MCF7, 72 h, read-out: ED50 (the source's name)

Row | Structure (SMILES) | EC50 (MOLT-4) [µg/mL] | EC50 (B16-F10) [µg/mL] | EC50 (L132) [µg/mL] | EC50 (HuTu80) [µg/mL] | EC50 (KB) [µg/mL] | EC50 (MIA PaCa-2) [µg/mL] | EC50 (MCF7) [µg/mL]
1 | O=C1/C(=C\c2ccccc2)c2ccccc2N1c1c(Cl)cccc1Cl | 7 (≈ 19.1 µM) | 9 (≈ 24.6 µM) | > 100 | 8 (≈ 21.8 µM) | 10 (≈ 27.3 µM) | > 100 | 10 (≈ 27.3 µM)
2 | O=C1/C(=C\c2ccccc2Cl)c2ccccc2N1c1c(Cl)cccc1Cl | 7 (≈ 17.5 µM) | 39 (≈ 97.3 µM) | > 100 | > 100 | 5 (≈ 12.5 µM) | > 100 | 9 (≈ 22.5 µM)
3 | O=C1/C(=C\c2ccccc2[N+](=O)[O-])c2ccccc2N1c1c(Cl)cccc1Cl | 6 (≈ 14.6 µM) | > 100 | 10 (≈ 24.3 µM) | 10 (≈ 24.3 µM) | 1 (≈ 2.43 µM) | 5 (≈ 12.2 µM) | 
4 | COc1ccc(/C=C2\C(=O)N(c3c(Cl)cccc3Cl)c3ccccc32)cc1OC |  | > 100 | > 100 | < 1 | 10 (≈ 23.5 µM) | 5 (≈ 11.7 µM) | 10 (≈ 23.5 µM)
5 | O=C1/C(=C\c2ccc(Cl)cc2)c2ccccc2N1c1c(Cl)cccc1Cl |  | > 100 | 9 (≈ 22.5 µM) | 6 (≈ 15 µM) | 2 (≈ 4.99 µM) | 5 (≈ 12.5 µM) | 5 (≈ 12.5 µM)
6 | COc1ccc(/C=C2\C(=O)N(c3c(Cl)cccc3Cl)c3ccccc32)cc1 |  | > 100 | > 100 | > 100 | > 100 | > 100 | > 100
7 | CN(C)c1ccc(/C=C2\C(=O)N(c3c(Cl)cccc3Cl)c3ccccc32)cc1 |  | > 100 | > 100 | < 1 | 15 (≈ 36.6 µM) | > 100 | > 100
8 | O=C1/C(=C\c2cccc(Cl)c2)c2ccccc2N1c1c(Cl)cccc1Cl | 6 (≈ 15 µM) | 8 (≈ 20 µM) | 16 (≈ 39.9 µM) | 7 (≈ 17.5 µM) | 2 (≈ 4.99 µM) | 5 (≈ 12.5 µM) | 
9 | O=C1/C(=C\c2cccc(Br)c2)c2ccccc2N1c1c(Cl)cccc1Cl | 7 (≈ 15.7 µM) | 8 (≈ 18 µM) | 19 (≈ 42.7 µM) | 7 (≈ 15.7 µM) | 2 (≈ 4.49 µM) | 5 (≈ 11.2 µM) | 5 (≈ 11.2 µM)
10 | O=C1/C(=C\c2cccc(Oc3ccccc3)c2)c2ccccc2N1c1c(Cl)cccc1Cl | 6 (≈ 13.1 µM) | > 100 | 24 (≈ 52.4 µM) | 10 (≈ 21.8 µM) | 5 (≈ 10.9 µM) | > 100 | 100 (≈ 218 µM)
11 | O=C1/C(=C\c2c(Cl)cccc2Cl)c2ccccc2N1c1c(Cl)cccc1Cl |  | > 100 | > 100 | 100 (≈ 230 µM) | 50 (≈ 115 µM) | > 100 | > 100
12 | O=C1/C(=C\c2cc3ccccc3nc2Cl)c2ccccc2N1c1c(Cl)cccc1Cl |  |  |  |  | 10 (≈ 22.1 µM) | 5 (≈ 11.1 µM) | > 100
13 | Cc1ccc2nc(Cl)c(/C=C3\C(=O)N(c4c(Cl)cccc4Cl)c4ccccc43)cc2c1 |  |  |  |  | 100 (≈ 215 µM) |  | > 100
14 | Cc1ccc2nc(Cl)c(/C=C3\C(=O)N(c4c(Cl)cccc4Cl)c4ccccc43)cc2c1C |  | > 100 | 98 (≈ 204 µM) | < 1 | 10 (≈ 20.8 µM) |  | > 100
15 | O=C1/C(=C\c2ccco2)c2ccccc2N1c1c(Cl)cccc1Cl |  | > 100 | > 100 | 18 (≈ 50.5 µM) | 5 (≈ 14 µM) | 10 (≈ 28.1 µM) | > 100
16 | O=C1/C(=C\c2ccc(O)cc2)c2ccccc2N1c1c(Cl)cccc1Cl |  | 33 (≈ 86.3 µM) | 30 (≈ 78.5 µM) | 25 (≈ 65.4 µM) | 2 (≈ 5.23 µM) | 2 (≈ 5.23 µM) | 20 (≈ 52.3 µM)
17 | O=C1/C(=C\c2ccc(F)cc2)c2ccccc2N1c1c(Cl)cccc1Cl |  | 38 (≈ 98.9 µM) | 13 (≈ 33.8 µM) | 8 (≈ 20.8 µM) | 5 (≈ 13 µM) | 5 (≈ 13 µM) | 9 (≈ 23.4 µM)
18 | O=C1/C(=C\c2cccc3ccccc23)c2ccccc2N1c1c(Cl)cccc1Cl |  | > 100 | > 100 | 10 (≈ 24 µM) | > 100 | > 100 | > 100
19 | O=C1Cc2ccccc2N1c1c(Cl)cccc1Cl |  | > 100 | > 100 | > 100 | 100 (≈ 360 µM) | > 100 | > 100
